Reference: publication PMC3436892, “Novel African Trypanocidal Agents: Membrane Rigidifying Peptides” (PLoS ONE, 2012)

What was measured:
[1] = Circular dichroism spectroscopy; type: physicochemical
Protocol: Spectra were recorded with a Jasco J-710 spectropolarimeter in a 1 mm quartz cuvette. Measurements were performed with a final concentration of 15 µM SHP-1 added from a stock of ethanol-solubilized peptide (final ethanol concentration 7.5 %) in 10 mM K2PO4, 50 mM Na2PO4, pH 7.5. Lipid associated peptide spectra were recorded with the addition of 0.1 µm unilamellar egg phosphatidylcholine liposomes at a peptide to lipid ration of 0.3. Spectra were averaged from four scans and the appropriate buffer scans were subtracted.

metacyclic T. b. brucei = experiment: 2 h in vitro killing assay, metacyclic form; type: cell-based, Trypanosoma brucei brucei strain STIB247; conditions: 2 h incubation, 1×10^4 cells/mL, HMI 9 with 10 % fetal bovine serum, live cells scored by hemocytometer, at least duplicate (Fig. 1a)
Protocol: Light microscopy based trypanosome killing assays were performed as previously described in detail, [10], [21], [22]. Metacyclic Trypanosoma brucei brucei strain STIB247 were obtained from dissection of the salivary glands of infected tsetse flies. Newly hatched Glossina morsitans morsitans (24–48 h post eclosion) were fed two defibrinated horse blood meals containing 2×10^6 mL^-1 trypanosomes on two separate days. Flies were then maintained at 25°C in 75 % relative humidity and fed maintenance blood meals three times per week. Following day 20–30, flies were harvested and salivary glands were dissected out and placed into HMI 9 media containing 10 % fetal bovine serum for 30 minutes. Metacyclic cells were expelled into the media by the residual peristalsis of the salivary glands. Cells were collected via centrifugation and maintained in HMI 9 media with 20 % fetal bovine serum at 37°C in 5 % CO2 until use. Killing assays were conducted with 1×10^4 cells/mL in HMI 9 media containing 10 % fetal bovine serum. Live cells were scored via hemocytometer after 2 h incubation. Trypanosoma vivax strain ILRAD V34 and Trypanosoma congolense strain IL3000 were grown from stabilites in donor ICR mouse (Harlan, United Kingdom). […] Cells were incubated at 37°C for 2 h and live cells were scored visually via hemocytometer. […]

Live BSF T. b. brucei = conditions: previously reported; cited from earlier work
Source text: Treatment of BSF African trypanosomes with SHP results in multiple physiological alterations. Addition of SHP-1 to BSF trypanosomes, which were subsequently immobilized in gelatin, decreases the fraction of laterally mobile surface exposed VSG (Fig. 2c). This effect may be directly due to increased membrane rigidity, or indirectly due to a decrease in the mobility of membrane spanning proteins and potential interactions with the VSG. Another physiological consequence, that may or may not be related to membrane rigidification, is SHP-induced changes in cell motility. Previously we reported that ...

BSF T. b. brucei VSG = experiment: FRAP of surface VSG; type: cell-based, strain 427; conditions: 8 µM peptide, 10 min at 37°C, cells immobilized in gelatin, line FRAP at 20°C (Fig. 2c)
Protocol: Bloodstream form T. b. brucei, strain 427, expressing VSG MITat1.6 were cultivated in HMI 9 media with 10% fetal calf serum. 1×10^7 cells were washed three times with ice cold trypanosome dilution buffer (TDB; 5 mM KCl, 80 mM NaCl, 1 mM MgSO4, 20 mM Na2HPO4, 2 mM NaH2PO4, 20 mM glucose, pH 7.6). The cell density was adjusted to 1×10^8 cells/mL and labeling of surface proteins was achieved by incubation with 1 µM sulfo-NHS coupled Atto 488 fluorescent dye (ATTO-TEC GmbH, Siegen) for 15 min on ice. After incubation the cells were washed three times with ice cold TDB to remove unbound dye. Labeled T. b. brucei cells were incubated with 8 µM SHP-1 for 10 min at 37°C. The fluorescently labeled cells were mixed 1∶3 with 10% Type-A gelatin from porcine skin (Sigma-Aldrich, Steinheim) in PBS, pH 7.8, at 37°C. 4 µL of the cell gelatin mixture was applied into a cover slide sandwich and mounted into a temperature controlled sample holder. The sample holder was cooled to 20°C until the cells were immobilized. Samples of SHP-1 treated and untreated MITat 1.6 wt cells were prepared identically. […] 10 pre-bleach and 100 post-bleach images were recorded at 2fps. VSG mobile fractions were determined according to Phair et al. (2004) using double normalization. The mobile fraction refers to the percentage of mobile VSG molecules within the measured region. […]

[2] = Parallax analysis of tryptophan penetration depth; type: physicochemical; conditions: 500 nM peptide, PBS, 37°C, 22 h
Protocol: The hydrocarbon penetration depth of tryptophans spaced throughout synthetic peptides corresponding to SHP-1 or SHP-3 (Table S1) was determined by parallax analysis with brominated phosphatidylcholine liposomes. Large unilamellar liposomes composed of egg phosphatidylcholine and 10 mol % 1-palmitoyl-2-(6,7-dibromo)stearoyl-sn-glycero-3-phosphocholine (shallow quencher) or 1-palmitoyl-2-(9,10-dibromo)stearoyl-sn-glycero-3-phosphocholine (deep quencher) were constructed by hydration of a thin dry lipid film with phosphate buffered saline. Resulting multilamellar liposomes were made unilameller via extrusion through polycarbonate filters with 0.1 µm pores. Peptides (500 nM) were incubated with 200 µg/ml liposomes in phosphate buffered saline at 37°C for 22 h. Tryptophan fluorescence at 357 nm was measured from at least triplicate trials in the PerkinElmer Life Sciences LS55 spectrofluorometer and an excitation wavelength of 280 nm for SHP-1 and 290 nm for SHP-2, 10 nm excitation and 9 nm emission slit widths. The distance of tryptophans from the bilayer center (ZCF) is calculated from the equation [12]: [drawing 1] Where LC1 is the distance from the center of the bilayer to the shallow quencher, in this case 10.8 Å for 6,7-dibromo-PC [25], F1 is the intensity of tryptophan in the presence of the shallow quencher and F2 is the tryptophan intensity in the presence of the deep quencher, C is the mole fraction of quencher divided by the area of individual phospholipid (70 Å^2), and L21 is the difference in the depth of the two quenchers (2.7 Å). The hydrocarbon insertion depth of tryptophans is then given by one half the bilayer thickness, 29 Å [25], minus ZCF.

SDLGAVISLLLWGRQLFA [SHP-1, trypanocidal small hydrophobic peptide derived from an apolipoprotein, with characteristics of a secretory signal peptide]
secondary structure in the presence of lipid (CD) ([1]; 15 µM peptide with 0.1 µm unilamellar egg phosphatidylcholine liposomes, peptide to lipid ratio 0.3, pH 7.5, peak 193 nm, minimum 208 nm): α-helical structure | secondary structure in solution (CD) ([1]; 15 µM peptide, 7.5 % ethanol, 10 mM K2PO4, 50 mM Na2PO4, pH 7.5, peak 195 nm, crossover about 205 nm, minimum 218 nm): β-sheet conformation | killing activity against metacyclic T. b. brucei (metacyclic T. b. brucei): no killing activity | effect on motility of BSF trypanosomes (Live BSF T. b. brucei): initial hyperactivation followed by constricted motility and death | fraction of laterally mobile surface exposed VSG (BSF T. b. brucei VSG): decreases | distance of tryptophan at position 1 from the membrane interface ([2]; Trp-substituted variant W1, 200 µg/ml egg PC liposomes with 10 mol % 6,7- or 9,10-dibromo-PC, bilayer thickness 29 Å, at least triplicate): approximately 1.1 Å | distance of tryptophan at position 8 from the membrane interface ([2]; Trp-substituted variant W8, 200 µg/ml brominated egg PC liposomes): approximately 7.8 Å | distance of tryptophan at position 18 from the membrane interface ([2]; Trp-substituted variant W18, 200 µg/ml brominated egg PC liposomes): ~2.0 Å | distance of tryptophan at position 12 from the membrane interface ([2]; native tryptophan, 200 µg/ml brominated egg PC liposomes): ~5.1 Å | F1/F2 ± S.D. ([2]; ratio of tryptophan fluorescence intensity (357 nm) with shallow (6,7-dibromo-PC, F1) and deep (9,10-dibromo-PC, F2) quencher, 200 µg/ml liposomes, at least triplicate): 0.9676 ± 0.0560
